How the values were obtained:
[1] = Inhibition of linoleic acid peroxidation (AAPH-induced)
Protocol: Our group evaluated the in vitro study as reported previously. Ten 16 mM sodium linoleate solution microliters were added to the UV cuvette containing 93 µL of a 0.05 M phosphate buffer, pH 7.4, and 10 µL of the tested compounds (final concentration 100 µM). The oxidation reaction started at 37 °C under air by adding 50 µL of the free radical initiator AAPH (40 mM). Oxidation was carried out and monitored at 234 nm. DMSO under the same conditions was used as a negative control. Trolox was used as the appropriate standard (positive control). The results are given in Table S1 in the supplementary material.
We used the water-soluble 2, 2’-azobis(2-amidinopropane) hydrochloride (AAPH) to generate in vitro peroxyl radicals through spontaneous thermal decomposition, which resembles cellular lipid peroxidation due to the activity of the undertaken radicals. The anti-lipid peroxidation activities were compared to a well-known antioxidant, i.e., Trolox (Table S1 in the supplementary material). […] In general, the anti-lipid peroxidation ranged from 8-99%. Except for acids 11, 12, 17, 19, 21, 22, 24, 25, and 28, which present high antioxidant activities (on the high % level), the other cinnamic acids present low or medium activity.

[2] = target: T1, ovine COX-2 (Ovis aries, UniProt P79208); assay: Cyclooxygenase-2 inhibition study; type: biochemical; settings: for IC50: read-out: COX-2 inhibition (IC50); for COX-2 inhibition (%): % inhibition at 100 µM
T1 construct: purchased Cayman (USA)
T1 sequence (P79208 17-603): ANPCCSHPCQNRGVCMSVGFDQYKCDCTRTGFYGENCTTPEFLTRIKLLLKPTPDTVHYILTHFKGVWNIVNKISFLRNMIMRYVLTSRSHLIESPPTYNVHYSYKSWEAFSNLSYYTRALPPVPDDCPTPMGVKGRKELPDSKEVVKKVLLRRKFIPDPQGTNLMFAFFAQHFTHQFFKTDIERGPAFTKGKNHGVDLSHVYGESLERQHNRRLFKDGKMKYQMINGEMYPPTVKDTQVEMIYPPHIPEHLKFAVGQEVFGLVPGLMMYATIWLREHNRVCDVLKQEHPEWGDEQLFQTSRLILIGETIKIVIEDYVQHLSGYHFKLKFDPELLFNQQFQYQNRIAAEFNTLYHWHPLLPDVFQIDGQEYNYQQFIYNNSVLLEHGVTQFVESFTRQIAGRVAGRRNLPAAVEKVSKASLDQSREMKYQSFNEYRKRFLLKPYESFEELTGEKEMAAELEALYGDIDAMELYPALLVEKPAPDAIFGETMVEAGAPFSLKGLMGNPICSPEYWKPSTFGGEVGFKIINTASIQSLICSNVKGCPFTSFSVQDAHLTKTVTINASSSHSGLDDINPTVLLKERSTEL
Protocol: The in vitro study of cyclooxygenase (COX) activity was determined by using arachidonic acid (AA) as the substrate and N,N,N’,N’-tetramethylphenylenediamine (TMPD) as the co-substrate. […] The absorption due to the spontaneous oxidation of TMPD was subtracted from the initial rate of oxidation observed in the presence of AA. […] A blank determination was used first to serve as a negative control. Indomethacin was used as a reference COX-2 inhibitor (positive control).
The role of COX-2 in neurodegenerative diseases has been reported, and COX-2 inhibition is considered of high importance as a therapeutic tool. The designed derivatives were tested for their COX-2 inhibition activity on the ovine COX-2 enzyme. […] Indomethacin was used as a reference compound.

Row | SMILES | IC50 [2] | COX-2 inhibition (%) [2] | inhibition at 100 µM [2] | AAPH inhibition (%, at 100 µM) [1]
1 | COC(=O)CC[C@H](NC(=O)/C=C/c1ccc(OCc2ccc(Br)cc2)cc1)C(=O)OC [Compound 11c] |  |  |  | 92%
2 | CCOC(=O)CNC(=O)/C=C/c1ccc(C#N)cc1 [Compound 26a] | 77.5 µM |  |  | 37%
3 | CCOC(=O)CNC(=O)/C=C/C=C/c1ccccc1 [Compound 23a] | 35 µM |  |  | 85%
4 | COC(=O)CCCNC(=O)/C=C/c1cc(OC)ccc1OC [Compound 19b] |  | 20% |  | 70%
5 | CCOC(=O)CNC(=O)/C=C/c1ccc(OCc2ccc(Br)cc2)cc1 [Compound 11a, Ethyl (E)-(3-(4-((4-bromobenzyl)oxy)phenyl)acryloyl)glycinate] | 6 µM |  |  | 38%
6 | O=C(O)/C=C/c1cccc2ccccc12 [Compound 17] |  |  |  | 78%
7 | O=C(O)/C=C/c1ccc(F)cc1 [Compound 27] |  |  | 46% | 
8 | COC(=O)CC[C@H](NC(=O)/C=C/c1ccc(Cl)cc1)C(=O)OC [Compound 16c] |  |  |  | 26%
9 | CCOC(=O)CNC(=O)/C=C/c1ccc(F)cc1 [Compound 27a] |  |  |  | 78%
10 | COc1cc(/C=C/C(=O)O)ccc1O [Compound 24] |  |  | 14% | 86%
11 | CCOC(=O)CNC(=O)/C=C/c1ccc(O)cc1 [Compound 25a] |  |  |  | 39%
12 | Cc1c(C)c2c(c(C)c1O)CCC(C)(C(=O)O)O2 (centres unmarked) [Trolox, reference compound] |  |  |  | 92%
13 | O=C(O)/C=C/c1ccc(Cl)cc1 [Compound 16] |  |  | 46% | 
14 | O=C(O)/C=C/c1ccc(Br)cc1 [Compound 14] | 100 µM |  |  | 13%
15 | O=C(O)/C=C/c1ccc(O)c(O)c1 [Compound 28, trans-caffeic acid] |  |  | 6% | 80%
16 | CCOC(=O)CNC(=O)/C=C/c1ccc(OC(C)=O)cc1 [Compound 30a] | 58 µM |  |  | 

Continued, in another order:

Row | IC50 [2] | COX-2 inhibition (%) [2] | inhibition at 100 µM [2] | SMILES | AAPH inhibition (%, at 100 µM) [1]
17 | 32.5 µM |  |  | COC(=O)CCCNC(=O)/C=C/c1ccc(C#N)cc1 [Compound 26b] | 3%
18 | 55 µM |  |  | COC(=O)CCCNC(=O)/C=C/C=C/c1ccccc1 [Compound 23b] | 78%
19 |  | 43% |  | COC(=O)CCCNC(=O)/C=C/c1cccc(Br)c1 [Compound 15b] | 27%
20 | 92.5 µM |  |  | COC(=O)CCCNC(=O)/C=C/c1ccc(Cl)cc1 [Compound 16b] | 8%
21 | 61 µM |  |  | COC(=O)CCCNC(=O)C=Cc1ccccc1 [Compound 22b] | 24%
22 | 50 µM |  |  | COC(=O)CCCNC(=O)/C=C/c1ccc(OC(C)=O)cc1 [Compound 30b] | 9%
23 | 63 µM |  |  | CCOC(=O)CNC(=O)/C=C/c1ccc(Cl)cc1 [Compound 16a] | 
24 | 75 µM |  |  | COC(=O)CCCNC(=O)/C=C/c1ccc(F)cc1 [Compound 27b] | 22%
25 |  | 4% |  | COC(=O)CCCNC(=O)/C=C/c1ccc2c(c1)OC(C)(C)O2 [Compound 29b] | 
26 | 65.5 µM |  |  | CCOC(=O)CNC(=O)/C=C/c1ccc(Br)cc1 [Compound 14a] | 69%

Source: article PMC11348465, “Pharmacochemical Study of Multitarget Amino Acids’ Hybrids: Design, Synthesis, In vitro, and In silico Studies” (Medicinal Chemistry (Shariqah (United Arab Emirates), 2024)
